ChEMBL document CHEMBL3044848, “Antiangiogenic and growth inhibitory effects of synthetic novel 1, 5-diphenyl-1,4 pentadiene-3-one-3-yl-ethanone pyridine curcumin analogues on Ehrlich ascites tumor in vivo” (Med Chem Res, 2008)
Calls of active or inactive are those of the source. The rule behind the calls is not given here.

How the values were obtained:
EAT [1] = test: Antiangiogeneic activity against Mus musculus (mouse) EAT cells xenografted in Mus musculus Swiss albino (mouse) assessed as decrease in peritoneal microvessel density per high power field at 100 mg/kg, ip administered on days 7,9 and 11 measured on day 12 by H and E staining-based microscopic analysis; type: functional, organism-based; set-up: dose 100 mg/kg
EAT [2] = test: Antitumor activity against Mus musculus (mouse) EAT cells xenografted in Mus musculus Swiss albino (mouse) assessed as decrease in cell number at 100 mg/kg, ip administered on days 7,9 and 11 post tumor-injection measured on day 12 relative to control; type: functional, organism-based; set-up: dose 100 mg/kg
EAT [3] = test: Antitumor activity against Mus musculus (mouse) EAT cells xenografted in Mus musculus Swiss albino (mouse) assessed as decrease in ascites volume at 100 mg/kg, ip administered on days 7,9 and 11 post tumor-injection measured on day 12 relative to control; type: functional, organism-based; set-up: dose 100 mg/kg
EAT [4] = test: Antitumor activity against EAT cells xenografted in Mus musculus Swiss albino (mouse) assessed as apoptotic bodies at 100 mg/kg, ip administered on days 7,9 and 11 post tumor-injection measured on day 12 by Geimsa staining; type: functional, organism-based; set-up: dose 100 mg/kg
[5] = Antitumor activity against Mus musculus (mouse) EAT cells xenografted in Mus musculus Swiss albino (mouse) assessed as change in body weight at 100 mg/kg, ip administered on days 7,9 and 11 post tumor-injection measured on day 12 (reference value: 10.44 +/- 0.147); type: functional; conditions: route intraperitoneal
EAT [6] = test: Antitumor activity against EAT cells xenografted in Mus musculus (mouse) assessed as condensed nuclei at 100 mg/kg, ip administered on days 7,9 and 11 post tumor-injection measured on day 12 by acridine orange:ethidium bromide staining; type: functional, organism-based; set-up: dose 100 mg/kg
Mus musculus [7] = test: Toxicity against Mus musculus Swiss albino (mouse) assessed as mortality at 100 mg/kg, ip; type: organism-based; set-up: dose 100 mg/kg, route intraperitoneal; conditions: in vivo
Mus musculus [8] = test: Toxicity against Mus musculus Swiss albino (mouse) assessed as weight loss at 100 mg/kg, ip; type: organism-based; set-up: dose 100 mg/kg, route intraperitoneal; conditions: in vivo
[9] = Antitumor activity against Mus musculus (mouse) EAT cells xenografted in Mus musculus Swiss albino (mouse)assessed as increase in life span at 100 mg/kg, ip administered on days 7,9 and 11 post tumor-injection measured on day 12 relative to control; type: functional; conditions: route intraperitoneal
Chorioallantoic membrane = test: Antiangiogenesis activity against fertilized Gallus gallus (chicken) egg chorioallantoic membrane assessed as inhibition of neovascularization at 0.1 mM administered to 11 day old embryo measured on day 13 by microscopic analysis; type: functional, tissue-based

| SMILES | Activity (EAT [1]) | Activity (EAT [2]) | Activity (EAT [3]) | Activity (EAT [4]) | Activity [5] | Activity (EAT [6]) | Activity (Mus musculus [7]) | Activity (Mus musculus [8]) | Activity [9] | inhibition (Chorioallantoic membrane) |
| --- | --- | --- | --- | --- | --- | --- | --- | --- | --- | --- |
| O=C(/C=C/c1ccc(OCC(=O)c2cccnc2)cc1)/C=C/c1ccc(OCC(=O)c2cccnc2)cc1 | Active | Active | Active | Active | -4.96 g | Active | Non-toxic | Non-toxic | 66.6% | Active |
| COc1cc(/C=C/C(=O)/C=C/c2ccc(OCC(=O)c3cccnc3)c(OC)c2)ccc1OCC(=O)c1cccnc1 | Active | Active | Active | Active | -5.07 g | Active | Non-toxic | Non-toxic | 88.8% | Active |
